Source: patent US9212139B2, “Aryl substituted indoles and their use as blockers of sodium channels” (Purdue Pharma, L.P., priority 2010, dated 2015)
Where two headings read alike, the source gives them in different places.

Target: human Nav1.7 (Homo sapiens (Human), UniProt Q15858)
Experiment: FLIPR or FLIPR TETRA sodium dye assay with KCl and test article pre-incubation
Assay type: cell-based
Description: For dominant selection of the Nav1.7-expressing clones, the expression plasmid co-expressed the neomycin resistance gene. […] Recombinant beta and gamma subunits were not introduced into this cell line. Additional cell lines expressing recombinant Nav1.7 cloned from other species can also be used, alone or in combination with various beta subunits, gamma subunits or chaperones.
Cell maintenance: Unless otherwise noted, cell culture reagents were purchased from Mediatech of Herndon, Va. The recombinant Nav1.7/HEK293 cells were routinely cultured in growth medium consisting of Dulbecco's […] containing 10% fetal bovine serum (FBS, Hyclone, Thermo Fisher Scientific, Logan, Utah), 100 U/mL penicillin, […], 2-4 mM L-glutamine, and […]. For natural, non-recombinant cell lines, the selective antibiotic was omitted, and additional media formulations can be applied as needed.
The intensity of this emission, but not the wavelength range, is increased when the dye is exposed to Na^+ ions, which it can bind with partial selectivity. Cells expressing Nav1.7 or other sodium channels were loaded with the CoroNa™ Green dye immediately in advance of the fluorescence assay, and then, after agonist stimulation, the mobilization of Na^+ ions was detected as the Na^+ ions flowed from the extracellular fluid into the cytoplasm through the activated sodium channel pores. The dye was stored in the dark as a lyophilized powder, and then an aliquot was dissolved immediately before the cell loading procedure, according to the instructions of the manufacturer to a stock concentration of 10 mM in DMSO. It was then diluted in the assay buffer to a 4× concentrated working solution, so that the final concentration of dye in the cell loading buffer was 5 μM.
These scorpion toxins inhibit the fast inactivation of their cognate target channels. Stock solutions of the agonists were prepared to 40 mM in DMSO (veratridine) and 1 mg/mL in dH2O (scorpion venom), and then diluted to make a 4× or 2× stock (depending on the particular assay) in assay buffer, the final concentration being 100 μM (veratridine) and 10 μg/mL (scorpion venom). Both of the agonists were purchased from Sigma Aldrich, St. Louis, Mo.
Test Compounds: Test compounds were dissolved in DMSO to yield 10 mM stock solutions. […] If a particular test article appeared to be especially potent, then the concentration curve was adjusted, e.g., to 10-fold lower concentrations, in order to perform the dose-response in a more relevant concentration range. Compound dilutions were added during the dye-loading and pre-stimulation step, and then again during the fluorescence assay, early in the kinetic read.
Data Analysis: The data were analyzed according to methods known to those skilled in the art or using the GraphPad® Prism 4.0 Program (available from GraphPad Software, San Diego, Calif.) to determine the IC50 value for the test article. At least one standard reference compound was evaluated during each experiment.
FLIPR® or FLIPR^TETRA® sodium dye assay with KCl and test article pre-incubation: Cells were prepared by plating the recombinant HEK293 cells or other host cells expressing either recombinant or non-recombinant, native, Nav1.7 alpha subunit, alone or in combination with various beta and gamma subunits at a density of ˜40,000 cells/well into a 96-well black, clear-bottom, PDL-coated plate. The assay can be adapted to 384-well or 1,536-well format, if desired, using proportionately less cells and media. […] For counter-screens of other voltage-gated sodium channels, the procedure was very similar, though optimal densities of cells, media and subsequent assay components can be fine-tuned for the particular cell line or isoform.

[1] = sodium dye assay with KCl, recombinant human Nav1.7 in HEK293 cells, value ± SEM
[2] = read-out: FLIPR Nav1.7 IC50 (μM) ± SEM

Chain of human Nav1.7 (Q15858 other isoform, or with tags, fused parts or gaps): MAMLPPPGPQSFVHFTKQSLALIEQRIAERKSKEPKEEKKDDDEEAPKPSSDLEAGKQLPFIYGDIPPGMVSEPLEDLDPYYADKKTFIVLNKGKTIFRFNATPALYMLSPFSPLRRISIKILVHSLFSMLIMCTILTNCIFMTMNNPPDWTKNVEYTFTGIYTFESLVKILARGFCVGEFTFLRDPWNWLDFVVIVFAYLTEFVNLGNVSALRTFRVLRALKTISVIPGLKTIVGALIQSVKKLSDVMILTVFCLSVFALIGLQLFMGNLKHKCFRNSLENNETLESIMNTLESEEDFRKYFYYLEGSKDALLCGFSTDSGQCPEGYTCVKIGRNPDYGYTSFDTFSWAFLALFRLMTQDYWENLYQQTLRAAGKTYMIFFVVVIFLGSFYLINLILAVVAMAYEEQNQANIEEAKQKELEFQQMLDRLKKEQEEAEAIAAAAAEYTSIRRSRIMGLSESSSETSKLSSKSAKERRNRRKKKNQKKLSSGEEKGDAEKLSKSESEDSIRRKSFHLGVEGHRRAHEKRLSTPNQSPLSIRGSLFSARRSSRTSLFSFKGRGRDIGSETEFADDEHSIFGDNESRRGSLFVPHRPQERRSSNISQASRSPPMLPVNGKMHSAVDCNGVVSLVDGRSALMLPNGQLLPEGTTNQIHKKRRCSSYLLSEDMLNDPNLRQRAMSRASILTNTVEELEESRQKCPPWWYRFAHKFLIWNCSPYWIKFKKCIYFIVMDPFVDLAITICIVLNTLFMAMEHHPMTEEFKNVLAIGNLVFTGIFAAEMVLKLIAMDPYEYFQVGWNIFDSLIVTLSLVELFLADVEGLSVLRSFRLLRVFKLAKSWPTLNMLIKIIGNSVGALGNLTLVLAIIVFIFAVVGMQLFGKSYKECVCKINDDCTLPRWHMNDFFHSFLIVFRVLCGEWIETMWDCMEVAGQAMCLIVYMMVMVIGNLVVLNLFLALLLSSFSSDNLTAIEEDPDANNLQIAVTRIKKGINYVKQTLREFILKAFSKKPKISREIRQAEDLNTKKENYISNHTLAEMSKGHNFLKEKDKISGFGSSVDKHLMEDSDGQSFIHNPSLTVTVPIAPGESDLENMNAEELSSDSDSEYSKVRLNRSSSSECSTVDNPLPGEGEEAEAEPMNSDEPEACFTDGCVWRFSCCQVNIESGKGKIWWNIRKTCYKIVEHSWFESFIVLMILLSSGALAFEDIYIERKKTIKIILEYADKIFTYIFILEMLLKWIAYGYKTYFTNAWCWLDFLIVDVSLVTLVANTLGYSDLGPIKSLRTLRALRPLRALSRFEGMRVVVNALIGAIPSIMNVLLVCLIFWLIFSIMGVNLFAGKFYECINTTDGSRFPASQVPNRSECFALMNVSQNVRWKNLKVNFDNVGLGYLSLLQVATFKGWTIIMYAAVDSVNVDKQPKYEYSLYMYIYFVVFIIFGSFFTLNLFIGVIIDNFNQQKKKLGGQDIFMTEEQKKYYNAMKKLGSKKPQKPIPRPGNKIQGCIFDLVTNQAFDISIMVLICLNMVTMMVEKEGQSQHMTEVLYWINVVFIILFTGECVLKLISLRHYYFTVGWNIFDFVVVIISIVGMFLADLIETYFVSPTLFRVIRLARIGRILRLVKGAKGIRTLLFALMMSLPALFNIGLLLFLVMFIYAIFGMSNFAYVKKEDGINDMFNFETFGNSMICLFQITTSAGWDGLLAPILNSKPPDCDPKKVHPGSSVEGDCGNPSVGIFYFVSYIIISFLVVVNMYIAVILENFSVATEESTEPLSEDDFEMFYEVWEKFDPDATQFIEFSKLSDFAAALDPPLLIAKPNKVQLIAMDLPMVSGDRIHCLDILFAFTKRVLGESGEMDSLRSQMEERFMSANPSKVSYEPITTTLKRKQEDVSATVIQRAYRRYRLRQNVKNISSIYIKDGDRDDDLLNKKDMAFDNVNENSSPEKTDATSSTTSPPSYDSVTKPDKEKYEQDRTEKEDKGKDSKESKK

Q: With `CCOC(=O)C(N)Cc1c[nH]c2ccc(-c3ccc(Oc4ccccc4)cc3)cc12` (centres unmarked) [Compound 7, 2-Amino-3-[5-(4-phenoxyphenyl)-1H-indol-3-yl]propionic acid ethyl ester] as the molecule, how does the IC50 [1] read?
A: Its IC50 is 0.481 ± 0.042 µM.

Q: Which IC50 [1] does the source give for `NC(Cc1c[nH]c2ccc(-c3ccc(Oc4ccccc4)cc3)cc12)C(=O)O` (centres unmarked) [Compound 9, 2-Amino-3-[5-(4-phenoxyphenyl)-1H-indol-3-yl]propionic acid] here?
A: Its IC50 is over 20 µM.

Q: Which IC50 [1] does the source give for `NC(=O)C(N)Cc1c[nH]c2cc(-c3ccc(Oc4ccccc4)cc3)ccc12` (centres unmarked) [Compound 15, 2-Amino-3-[6-(4-phenoxyphenyl)-1H-indol-3-yl]propionamide] here?
A: The IC50 was 2.05 ± 0.094 µM.

Q: For `CCOC(=O)C(Cc1c[nH]c2cc(-c3ccc(Oc4ccccc4)cc3)ccc12)NC(=O)OC(C)(C)C` (centres unmarked) [Compound 16, 2-tert-Butoxycarbonylamino-3-[6-(4-phenoxyphenyl)-1H-indol-3-yl]-propionic acid ethyl ester], which IC50 [1] is on record?
A: Its IC50 is 2.52 ± 0.663 µM.

Q: How did the IC50 [1] turn out when `CC(C)(C)OC(=O)NC(Cc1c[nH]c2cc(-c3ccc(Oc4ccccc4)cc3)ccc12)C(=O)O` (centres unmarked) [Compound 17, 2-tert-Butoxycarbonylamino-3-[6-(4-phenoxyphenyl)-1H-indol-3-yl]-propionic acid] was run?
A: The IC50 was 1.93 ± 0.228 µM.

Q: How did the IC50 [1] turn out when `NC(=O)C(N)Cc1c(-c2ccc(Oc3ccccc3)cc2)[nH]c2ccccc12` (centres unmarked) [Compound 28, 2-Amino-3-[2-(4-phenoxyphenyl)-1H-indol-3-yl]propionamide] was run?
A: Its IC50 is 0.24 ± 0.023 µM.

Q: With `NC(Cc1cn(-c2ccc(Oc3ccccc3)cc2)c2ccccc12)C(=O)NCCO` (centres unmarked) [Compound 37, 2-Amino-N-(2-hydroxyethyl)-3-[1-(4-phenoxyphenyl)-1H-indol-3-yl]-propionamide] as the molecule, how does the IC50 [1] read?
A: The IC50 was 0.364 ± 0.112 µM.

Q: `CS(=O)(=O)NC(Cc1cn(-c2ccc(Oc3ccccc3)cc2)c2ccccc12)C(N)=O` (centres unmarked) [Compound 39, 2-Methanesulfonylamino-3-[1-(4-phenoxyphenyl)-1H-indol-3-yl]propionamide] was tested. Which IC50 [1] did it give?
A: Its IC50 is 1.01 ± 0.162 µM.

Q: For `N#Cc1cc(Oc2ccc(-n3cc(C(O)CO)c4ccccc43)cc2)ccc1C(F)(F)F` (centres unmarked) [Compound 51, 5-{4-[3-(1,2-Dihydroxyethyl)-1H-indol-1-yl]phenoxy}-2-(trifluoromethyl)benzonitrile], which IC50 [2] is on record?
A: The IC50 was 0.26 ± 0.009 µM.

Q: `N#Cc1ccc(Oc2ccc(-n3cc(C[C@H](O)CO)c4ccccc43)cc2)cc1` [Compound 76, (S)-4-(4-(3-(2,3-Dihydroxypropyl)-1H-indol-1-yl)phenoxy)benzonitrile] was tested. Which IC50 [2] did it give?
A: The IC50 was 0.501 ± 0.089 µM.

Q: For `N#Cc1ccc(Oc2ccc(-n3cc(C[C@@H](O)CO)c4ccccc43)cc2)cc1` [Compound 77, (R)-4-(4-(3-(2,3-Dihydroxypropyl)-1H-indol-1-yl)phenoxy)benzonitrile], which IC50 [2] is on record?
A: The IC50 was 0.48 ± 0.087 µM.

Q: Which IC50 [1] does the source give for `OC[C@@H](O)Cc1cn(-c2ccc(Oc3ccc(C(F)(F)F)cc3)cc2)c2ccccc12` [Compound 80, (S)-3-(1-(4-(4-(Trifluoromethyl)phenoxy)phenyl)-1H-indol-3-yl)propane-1,2-diol] here?
A: Its IC50 is 0.524 ± 0.085 µM.

Q: With `OC[C@@H](O)Cc1cn(-c2ccc(Oc3ccc(C(F)(F)F)cn3)cc2)c2ccccc12` [Compound 83, (S)-3-(1-(4-((5-(Trifluoromethyl)pyridin-2-yl)oxy)phenyl)-1H-indol-3-yl)propane-1,2-diol] as the molecule, how does the IC50 [1] read?
A: Its IC50 is 0.257 ± 0.067 µM.

Q: With `CN(c1ccc(F)cc1)S(=O)(=O)c1ccc(-n2cc(C[C@H](O)CO)c3ccccc32)cc1` [Compound 90, (S)-4-(3-(2,3-Dihydroxypropyl)-1H-indol-1-yl)-N-(4-fluorophenyl)-N-methylbenzenesulfonamide] as the molecule, how does the IC50 [1] read?
A: Its IC50 is 0.865 ± 0.058 µM.

Q: For `O=S(=O)(Nc1ccc(F)cc1)c1ccc(-n2cc(C[C@H](O)CO)c3ccccc32)cc1` [Compound 92, (S)-4-(3-(2,3-Dihydroxypropyl)-1H-indol-1-yl)-N-(4-fluorophenyl)benzenesulfonamide], which IC50 [1] is on record?
A: Its IC50 is 1.89 ± 0.164 µM.

Q: Which IC50 [1] does the source give for `N#Cc1ccc2c(C[C@H](O)CO)cn(-c3ccc(Oc4ccc(F)cc4)cc3)c2c1` [Compound 105, (S)-3-(2,3-Dihydroxypropyl)-1-(4-(4-fluorophenoxy)phenyl)-1H-indole-6-carbonitrile] here?
A: The IC50 was 1.65 ± 0.438 µM.

Q: With `N#Cc1ccc2c(c1)c(C[C@H](O)CO)cn2-c1ccc(Oc2ccc(F)cc2)cc1` [Compound 110, (S)-3-(2,3-Dihydroxypropyl)-1-(4-(4-fluorophenoxy)phenyl)-1H-indole-5-carbonitrile] as the molecule, how does the IC50 [1] read?
A: Its IC50 is 2.45 ± 0.542 µM.

Q: `N#Cc1cccc2c(C[C@H](O)CO)cn(-c3ccc(Oc4ccc(F)cc4)cc3)c12` [Compound 115, (S)-3-(2,3-Dihydroxypropyl)-1-(4-(4-fluorophenoxy)phenyl)-1H-indole-7-carbonitrile] was tested. Which IC50 [1] did it give?
A: The IC50 was 0.474 ± 0.133 µM.

Q: For `N#Cc1cccc2c1c(C[C@H](O)CO)cn2-c1ccc(Oc2ccc(F)cc2)cc1` [Compound 120, (S)-3-(2,3-Dihydroxypropyl)-1-(4-(4-fluorophenoxy)phenyl)-1H-indole-4-carbonitrile], which IC50 [1] is on record?
A: The IC50 was 0.262 ± 0.066 µM.

Q: With `NC(=O)c1ccc2c(C[C@H](O)CO)cn(-c3ccc(Oc4ccc(F)cc4)cc3)c2c1` [Compound 123, (S)-3-(2,3-Dihydroxypropyl)-1-(4-(4-fluorophenoxy)phenyl)-1H-indole-6-carboxamide] as the molecule, how does the IC50 [1] read?
A: The IC50 was 4.92 ± 0.822 µM.

Q: How did the IC50 [1] turn out when `O=C(O)c1cccc2c1c(C[C@H](O)CO)cn2-c1ccc(Oc2ccc(F)cc2)cc1` [Compound 129, (S)-3-(2,3-Dihydroxypropyl)-1-(4-(4-fluorophenoxy)phenyl)-1H-indole-4-carboxylic acid] was run?
A: The IC50 was 3.33 ± 0.495 µM.

Q: For `N#Cc1cc(Oc2ccc(-n3cc(C[C@@H](O)CO)c4c(C(O)CO)cccc43)cc2)ccc1C(F)(F)F` (stereo partly drawn) [Compound 139, 5-(4-(4-(1,2-Dihydroxyethyl)-3-((R)-2,3-dihydroxypropyl)-1H-indol-1-yl)phenoxy)-2-(trifluoromethyl)benzonitrile], which IC50 [1] is on record?
A: The IC50 was over 20 µM.

Q: Which IC50 [1] does the source give for `N#Cc1cc(Oc2ccc(-n3cc(C[C@H](O)CO)c4c(C(O)CO)cccc43)cc2)ccc1C(F)(F)F` (stereo partly drawn) [Compound 141, 5-(4-(4-(1,2-Dihydroxyethyl)-3-((S)-2,3-dihydroxypropyl)-1H-indol-1-yl)phenoxy)-2-(trifluoromethyl)benzonitrile] here?
A: The IC50 was 1.97 ± 0.494 µM.

Q: `NC(=O)c1nn(-c2ccc(Oc3ccccc3)cc2)c2ccccc12` [Compound 145, 1-(4-Phenoxyphenyl)-1H-indazole-3-carboxamide] was tested. Which IC50 [2] did it give?
A: The IC50 was 0.326 ± 0.043 µM.

Q: Which IC50 [2] does the source give for `O=C(NO)c1nn(-c2ccc(Oc3ccccc3)cc2)c2ccccc12` [Compound 146, N-Hydroxy-1-(4-phenoxyphenyl)-1H-indazole-3-carboxamide] here?
A: Its IC50 is 8.07 ± 0.484 µM.

Q: How did the IC50 [1] turn out when `OCc1cn(-c2ccc(Oc3ccc(C(F)(F)F)cc3)cc2)c2cnccc12` [Compound 164, (1-(4-(4-(Trifluoromethyl)phenoxy)phenyl)-1H-pyrrolo[2,3-c]pyridin-3-yl)methanol] was run?
A: The IC50 was 0.345 ± 0.027 µM.

Q: Which IC50 [1] does the source give for `N#Cc1ccc(Oc2ccc(-n3cc(C[C@H](O)CO)c4ccncc43)cc2)cc1` [Compound 170] here?
A: Its IC50 is 1.38 ± 0.542 µM.

Q: With `CCN(CC)CCn1ccc2cc(-c3ccc(Oc4ccc(F)cc4)cc3)ccc21` [Compound 177, N,N-Diethyl-2-(5-(4-(4-fluorophenoxy)phenyl)-1H-indol-1-yl)ethanamine] as the molecule, how does the IC50 [2] read?
A: The IC50 was 0.895 ± 0.154 µM.

Q: With `CCN(CC)CCn1cc(C(=O)C(N)=O)c2cc(-c3ccc(Oc4ccc(F)cc4)cc3)ccc21` [Compound 178, 2-(1-(2-Diethylamino)ethyl-5-(4-(4-fluorophenoxy)phenyl)-1H-indol-3-yl)-2-oxoacetamide] as the molecule, how does the IC50 [2] read?
A: The IC50 was 1.03 ± 0.076 µM.

Q: `CCN(CC)CCn1cc(C[C@H](O)CO)c2cc(-c3ccc(Oc4ccc(F)cc4)cc3)ccc21` [Compound 182] was tested. Which IC50 [1] did it give?
A: Its IC50 is 1.06 ± 0.026 µM.

Q: `NC(=O)Cn1cc(C[C@H](O)CO)c2cc(-c3ccc(Oc4ccc(F)cc4)cc3)ccc21` [Compound 186, (S)-2-(3-(2,3-Dihydroxypropyl)-5-(4-(4-fluorophenoxy)phenyl)-1H-indol-1-yl)acetamide] was tested. Which IC50 [1] did it give?
A: The IC50 was 0.717 ± 0.042 µM.

Q: `N#Cc1ccc(Oc2ccc(-n3cc(C(O)(C(N)=O)C(F)(F)F)c4ccccc43)cc2)cc1C(F)(F)F` (centres unmarked) [Compound 192, 2-(1-(4-(4-Cyano-3-(trifluoromethyl)phenoxy)phenyl)-1H-indol-3-yl)-3,3,3-trifluoro-2-hydroxypropanamide] was tested. Which IC50 [2] did it give?
A: Its IC50 is 0.475 ± 0.065 µM.
